The values that follow come from patent US20210220408A1, “ARYL HYDROCARBON RECEPTOR ANTAGONISTS AND METHODS OF USE” (Magenta Therapeutics Inc., priority 2018, published 2021).

What is called IC50 is the concentration that inhibits the measured activity by half. The low end stands for greater potency, the high end for weaker potency.

The structures appear in SMILES notation. A value given as a limit tells only on which side of the number the result lay.

The experiment concerns the target T1, aryl hydrocarbon receptor (AHR) (Homo sapiens, UniProt P35869).
T1 sequence (P35869 11-848): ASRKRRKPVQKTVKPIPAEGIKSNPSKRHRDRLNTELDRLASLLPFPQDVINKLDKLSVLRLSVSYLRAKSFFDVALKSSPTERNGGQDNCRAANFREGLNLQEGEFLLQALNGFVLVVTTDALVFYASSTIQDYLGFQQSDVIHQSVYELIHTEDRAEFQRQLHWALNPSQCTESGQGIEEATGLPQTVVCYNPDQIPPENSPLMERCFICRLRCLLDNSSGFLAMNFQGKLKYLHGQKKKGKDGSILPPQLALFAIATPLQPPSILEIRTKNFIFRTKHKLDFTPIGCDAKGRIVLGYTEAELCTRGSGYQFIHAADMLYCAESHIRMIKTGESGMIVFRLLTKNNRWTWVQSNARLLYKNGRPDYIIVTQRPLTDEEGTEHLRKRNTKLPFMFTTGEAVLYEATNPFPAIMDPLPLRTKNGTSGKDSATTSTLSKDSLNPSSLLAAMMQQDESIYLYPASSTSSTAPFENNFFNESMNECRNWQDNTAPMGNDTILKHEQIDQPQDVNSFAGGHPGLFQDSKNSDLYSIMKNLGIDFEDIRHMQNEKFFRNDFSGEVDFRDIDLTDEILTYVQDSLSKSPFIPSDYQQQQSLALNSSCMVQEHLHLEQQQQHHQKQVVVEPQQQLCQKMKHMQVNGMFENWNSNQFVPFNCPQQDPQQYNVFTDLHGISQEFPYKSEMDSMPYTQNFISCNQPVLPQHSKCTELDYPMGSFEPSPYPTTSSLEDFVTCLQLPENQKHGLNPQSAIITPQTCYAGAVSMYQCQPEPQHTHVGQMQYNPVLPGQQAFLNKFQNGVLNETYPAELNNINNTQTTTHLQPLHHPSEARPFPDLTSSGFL
The experiment in a line: DRE-Luciferase reporter high-throughput screen (AHR antagonist, VAF347-activated).
From the text: HepG2 hepatocellular carcinoma cells were transfected with a dioxin-response element (DRE) Firefly luciferase reporter construct. Luciferase transcription was activated with the aryl hydrocarbon receptor (AHR) agonist, VAF347. Addition of an AHR antagonist results in inhibition of the luciferase transcription and a loss of signal in the assay.
HepG2, a hepatocellular carcinoma cell line, was transfected with the dioxin-response element Firefly luciferase reporter construct using the TransIT-transfection system. Prior to transfection, HepG2 cells (Sigma) were cultured at 90% confluency in Eagle's Modified Essential Medium (Sigma)+2 mM Glutamine (Sigma), +1^% Non Essential Amino Acids (Sigma)+10% Fetal Bovine Serum (Hyclone) and harvested and counted (Biorad TC20 cell counter). OptilMEM serum-free media and TransIT (Mirus) were mixed for transfection in 150 mm dishes by adding 240 μL Transit to 3.0 mL OptiMEM, vortexing briefly to mix, and incubating at room temperature for 20 minutes. The DNA mixture was prepared by adding 80 μg plasmid (pGudLuc6.1 plasmid, Garrison et al., (1996) Fundam. Appl. Toxicol., 30, 194-203), inverting to mix, and incubating at room temperature for 30 minutes. 30×10^6 HepG2 cells were seeded in 30 mL media and 3.3 mL of the DNA, OptiMEM, and TransIT mixture was added dropwise to the plate. The plate was mixed by rocking and incubated at 37° C./5% CO2 overnight. The next day, cells were harvested by aspirating media, washing once with sterile phosphate buffered saline (PBS, Gibco), trypsinzing with 0.05% Trypsin (Corning) and harvesting cells with culture medium, and freezing with Cell Freezing Media (Gibco) at 5 50×10^6 cells/vial in 1 mL/vial.
Transiently-transfected frozen HepG2 cells with DRE-Luciferase, were thawed in a 37° C. water bath and resuspended in complete media. 4 μL cells at 15,000 cells per well was transferred into the wells of a 1536-well Alphaplate assay plate (PerkinElmer) using TEMPEST liquid dispenser. The plate was centrifuged at 1000 rpm for 1 minute. 30 nL of the controls (1 μM (S)-2-(6-((2-(1H-indol-3-yl)ethyl)amino)-2-(5-fluoropyridin-3-yl)-9H-purin-9-yl)propan-1-ol or 100% DMSO) were transferred to the assay plate using the Pin Tool on BRAVO. 1 μL of VAF347 (15 nM final concentration) in complete media was added to the wells using TEMPEST. The plate was centrifuged at 1000 rpm for 1 minute and incubated at 37° C./5% CO2 overnight. After incubation, the plate was removed from the incubator and brought to room temperature. 2 μL of room temperature Steady-Glo luciferase detection reagent (Promega) was added to the wells with TEMPEST. The plate was centrifuged at 2000 rpm for 1 minute, sealed with clear plastic seal and kept at room temperature for 15 minutes prior to measuring luminescence on ENVISION.
Approximately 166,000 compounds were screened in 132 1536-well plates in the luciferase reporter gene assay at a final concentration of 12 μM. […] Each compound was tested at 0.1 μM, 1.0 μM, and 10 μM in the DRE luciferase assay and Cell Titer Glo cytotoxicity assay (Promega). […] 512 compounds were selected for 10-point dose-response in the AHR luciferase reporter assay and the Cell Titer Glo cytotoxicity assay.
For the molecule `Clc1ccccc1CNc1ccc(-c2ccccc2)nn1` [87A], the IC50 lay in the range of 1000 to 2000 nM.
The value for `Cc1c(-c2nc(-c3ccc(C(C)(C)C)cc3)no2)n(C)oc1=O` [87B] was 200 to 500 nM.
The value for `COc1cccc(Nc2ccc(-c3ccccc3)nn2)c1` [88A] was above 2000 nM.
The molecule `Cc1c(COc2ccccc2C#N)cccc1[N+](=O)[O-]` [88B] came in with an IC50 of 200 to 500 nM.
The value for `COc1cccc(-c2ccc(SCc3cccnc3)nn2)c1` [89A] was above 2000 nM; that for `COc1ccc(Cl)cc1C(=O)NCc1ccc(Cl)cc1` [89B] was 1000 to 2000 nM.
As for `CCOc1ccc(-c2ccc(SCC)nn2)cc1` [90A], the IC50 is above 2000 nM.
To `OCc1cc(Cl)c(OCc2ccc(F)cc2)c(Cl)c1` [90B] belongs 1000 to 2000 nM; to `Cc1cc(C)n(CC(C)Nc2ccc(Cl)c(C#N)n2)n1` (centres unmarked) [91A], 1000 to 2000 nM; to `CCSc1ccc(-c2ccc(-n3cccn3)cc2)nn1` [91B], 1000 to 2000 nM.
The value for `Cc1ccc(CS(=O)(=O)c2ccc(C(F)(F)F)cn2)cc1` [92A] was 1000 to 2000 nM.
As to `COC(OC)c1ccc(C#N)c(=O)n1Cc1ccc(Cl)cc1` [92B], the IC50 lay within 1000 to 2000 nM.
As to `N#Cc1ccc(OCc2ncc(C(F)(F)F)cc2Cl)cc1` [93A], the IC50 fell in the range of 1000 to 2000 nM.
The value for `O=S(=O)(Cc1cccc(F)c1)c1ccc2ccccc2c1` [93B] was 200 to 500 nM; that for `COc1ccnc(Sc2ccc(Cl)cc2)c1C#N` [94A] was 1000 to 2000 nM.
To `COc1ccc(Sc2nccc(N(C)C)c2C#N)cc1` [95A] belongs above 2000 nM; to `Cc1cccc(CSc2nncc3ccccc23)c1` [95B], 500 to 1000 nM; to `c1ccc(-c2ccc(OCc3cn4ccsc4n3)cc2)cc1` [96A], 1000 to 2000 nM.
To `O=C(Nc1cccc(F)c1)Nc1ccc2c(c1)C(=O)OC2` [96B] belongs above 2000 nM.
In turn, `O=C(c1csc2nc(-c3ccc(F)cc3)cn12)N1C[C@@H]2CC[C@@H]1C2` [97A] displayed an IC50 of 1000 to 2000 nM.
To `CCOC(=O)c1ccc(Nc2nc3nonc3[nH]/c2=N\OC(C)=O)cc1` [97B] belongs 1000 to 2000 nM.
The molecule `COc1cccc(-c2nn3c(-c4ccccn4)nnc3s2)c1` [98A] came in with an IC50 of 1000 to 2000 nM.
The value for `Clc1ccc(Nc2nnc(-c3ccncc3)s2)cc1` [98B] was 1000 to 2000 nM.
For the molecule `c1cncc(-c2nnc3sc(-c4csc5c4CCCC5)nn23)c1` [99A], the IC50 fell in the range of 1000 to 2000 nM.
The molecule `CSc1ccc(-c2nnc(NC(=O)C(C)(C)C)s2)cc1` [99B] showed an IC50 above 2000 nM.
The molecule `CCOC(=O)c1cc(-c2ccc(F)cc2)[nH]c1C` [100A] came in with an IC50 above 2000 nM.
To `c1ccc(-c2ccc(N3CCOCC3)s2)cc1` [100B] belongs above 2000 nM; to `CC(C)NC(=O)c1nc(-c2cn(-c3ccccc3)cn2)n2ccccc12` [101A], 1000 to 2000 nM; to `CC(=O)Nc1cc(Cl)c(-c2ccc([N+](=O)[O-])o2)c(Cl)c1` [101B], 200 to 500 nM.
Turning to `O=[N+]([O-])c1ccc(C2COC(c3ccc(Cl)cc3)O2)cc1` (centres unmarked) [102B], the IC50 lay within 1000 to 2000 nM.
In turn, `C(#Cc1ccc(-c2ccn[nH]2)cc1)c1ccccc1` [103A] yielded an IC50 of 1000 to 2000 nM.
The value for `O=C1CC(c2ccc(Cl)cc2)CN1C(=O)Nc1ccccc1` (centres unmarked) [103B] was 500 to 1000 nM; that for `CN(Cc1ccn(C)n1)C(=O)c1cc(-c2ccc(Cl)c(Cl)c2)[nH]n1` [104A] was above 2000 nM; that for `Cc1cc(-c2ccccc2)nc2c1/C(=N\O)CC(C)(C)C2` [104B] was 500 to 1000 nM.
The value for `Cc1c(-c2cc(NC(=O)C3CC3)[nH]n2)sc2ccc(Cl)cc12` [105A] was above 2000 nM; that for `CCCc1cc(C(=O)N2CCC(C3CCCCC3)C2)[nH]n1` (centres unmarked) [106A] was 1000 to 2000 nM; that for `CN(C)c1ccnc2sc(C(=O)c3ccccc3)c(N)c12` [106B] was below 200 nM.
To `CNS(=O)(=O)c1ccc2c(c1)CCN2C(=O)c1ccn(-c2cccc(F)c2)n1` [107A] belongs 1000 to 2000 nM; to `O=C(NCCc1ccc(Cl)cc1)c1cccc2nsnc12` [107B], 200 to 500 nM; to `COC(=O)c1ccc(NC(=O)CCn2nc(C)cc2C)s1` [108A], above 2000 nM.
For `CC(=O)N(CCc1ccccc1F)c1nc2ccccc2s1` [108B], the IC50 lay in the range of 1000 to 2000 nM.
Regarding `Cc1ccc(-c2nnc(-c3ccncc3)[nH]2)c([N+](=O)[O-])c1` [109A], the IC50 lay within 1000 to 2000 nM.
As to `O=C(NCCC1=CCCCC1)c1[nH]nc2c1CCCC2` [109B], the IC50 was in the range of 1000 to 2000 nM.
For `Cc1ccc(-n2nnc(-c3ccc(Cl)cc3)n2)cc1` [110A], the IC50 was 1000 to 2000 nM.
Molecule `COc1ccc(-c2cc(=O)c3cc(OC(=O)C(C)(C)C)ccc3o2)cc1` [110B] gave an IC50 of 200 to 500 nM.
On to `O=C(Cc1ccccc1)Nc1ccc2nc(C(F)(F)F)[nH]c2c1` [111A], for which the IC50 lay within 1000 to 2000 nM.
To `O=c1ccc2ccc(OCc3ccc(F)cc3Cl)cc2o1` [111B] belongs 200 to 500 nM; to `COc1ccc(OCCSc2nc3ccc(Br)cc3[nH]2)cc1` [112A], 1000 to 2000 nM; to `O=c1cc(CSc2nc3cc(Cl)ccc3o2)nc2sccn12` [112B], 200 to 500 nM.
With `Cc1ccc2nc(C3=C(N)N(CC(C)C)CC3=O)[nH]c2c1` [113A], the IC50 was 1000 to 2000 nM.
Regarding `Cc1ccc(OCc2cc(=O)n3ccsc3n2)cc1C` [113B], the IC50 fell in the range of 1000 to 2000 nM.
To `FC(F)(F)c1cccc(Nc2nc3ccccc3[nH]2)c1` [114A] belongs 1000 to 2000 nM.
To `N#Cc1ccc(CSc2ncc3ccccn23)cc1` [115A] belongs 1000 to 2000 nM; to `Cc1cccc(N2CC[C@H]3[C@H]2CCN3c2ncccn2)n1` [115B], 500 to 1000 nM; to `Clc1ccc2nnn(OCc3cn4cc(Cl)ccc4n3)c2c1` [116A], above 2000 nM.
For `COC(=O)c1cc2c(ccn2-c2ccc(F)cc2)n1CCC#N` [116B], the IC50 was in the range of 1000 to 2000 nM.
The molecule `O=C(COC(=O)c1cn2ccccc2n1)Nc1ccc(Cl)cc1Cl` [117A] yielded an IC50 above 2000 nM.
To `CCCCCc1ccc2c(C#N)c(OC)ccc2c1` [117B] belongs 1000 to 2000 nM; to `COc1ccc(-c2cc3ncc(-c4ccccc4)c(N)n3n2)cc1` [118A], 1000 to 2000 nM; to `CC(=O)c1oc2ccc3c(C)cc(=O)oc3c2c1C` [118B], above 2000 nM.
On to `COCCNc1c(C)c(C)nc2cc(-c3cc(C)oc3C)nn12` [119A], for which the IC50 is 1000 to 2000 nM.
Turning to `Cc1nn2c(-c3cccc(NC(=O)CN4CCCCC4)c3)nnc2c2ccccc12` [119B], the IC50 was in the range of 200 to 500 nM.
`Cc1cc(Cl)ccc1OCc1cn2cccnc2n1` [120A] yielded an IC50 of 1000 to 2000 nM.
In turn, `N#Cc1c(N)c(-c2ccc(F)cc2)cn2c1nc1ccccc12` [120B] gave an IC50 of 500 to 1000 nM.
`COc1ccc(C(=O)c2cnc3ncccn23)cc1` [121A] yielded an IC50 above 2000 nM.
The value for `COc1ccc(C2=C(C#N)c3nc4ccccc4n3C(=O)C2C#N)cc1` (centres unmarked) [121B] was 500 to 1000 nM; that for `Cc1cc(C)c2c(NCc3ccccc3F)[nH]nc2n1` [122A] was 1000 to 2000 nM.
To `CCn1c2ccccc2c2nnc(-n3nc(C)cc3C)nc21` [122B] belongs 1000 to 2000 nM.
As to `COc1ccccc1CNc1[nH]nc2nc(C)cc(C)c12` [123A], the IC50 was in the range of 1000 to 2000 nM.
The value for `N#Cc1c(N)nc2c(oc3ccccc32)c1-c1ccccc1` [123B] was 1000 to 2000 nM.
Take `Cc1nc(-c2ccc(OC3=CC=C4N=NC(C(F)(F)F)N4N3)cc2)no1` (centres unmarked) [124A]: the IC50 is above 2000 nM.
